Reference: ChEMBL document CHEMBL5465560, “Selectivity Literature for EUbOPEN Chemogenomic Library” (2024)
Values belong to the molecule of their own block, whether it stands above or below them.

How the values were obtained:
[1] = biological target: BMP-2-inducible protein kinase (Homo sapiens) (UniProt Q9NSY1); conditions: at 10 µM
[2] = biological target: Death-associated protein kinase 2 (Homo sapiens) (UniProt Q9UIK4); assay: Selectivity interaction (KinomeScan (DiscoverX)) EUB0000655a DAPK2; conditions: at 10 µM
Chain of Death-associated protein kinase 2 (Homo sapiens) (Q9UIK4 whole entry, looked up): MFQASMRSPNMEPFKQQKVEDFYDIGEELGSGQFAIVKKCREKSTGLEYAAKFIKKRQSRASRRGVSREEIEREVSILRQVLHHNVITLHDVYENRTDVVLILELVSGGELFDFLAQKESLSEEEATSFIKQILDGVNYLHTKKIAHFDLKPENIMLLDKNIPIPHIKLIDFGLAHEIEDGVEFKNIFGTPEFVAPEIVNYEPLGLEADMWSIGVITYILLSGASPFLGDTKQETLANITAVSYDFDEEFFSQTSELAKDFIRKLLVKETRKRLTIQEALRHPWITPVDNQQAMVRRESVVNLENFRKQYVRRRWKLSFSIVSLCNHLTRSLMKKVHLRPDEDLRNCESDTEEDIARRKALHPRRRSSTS

[3] = biological target: T1, Serine/threonine-protein kinase D2 (Homo sapiens) (UniProt Q9BZL6); assay: Selectivity interaction (KinomeScan (DiscoverX)) EUB0001619a PRKD2; conditions: at 1 µM
T1 sequence (whole entry): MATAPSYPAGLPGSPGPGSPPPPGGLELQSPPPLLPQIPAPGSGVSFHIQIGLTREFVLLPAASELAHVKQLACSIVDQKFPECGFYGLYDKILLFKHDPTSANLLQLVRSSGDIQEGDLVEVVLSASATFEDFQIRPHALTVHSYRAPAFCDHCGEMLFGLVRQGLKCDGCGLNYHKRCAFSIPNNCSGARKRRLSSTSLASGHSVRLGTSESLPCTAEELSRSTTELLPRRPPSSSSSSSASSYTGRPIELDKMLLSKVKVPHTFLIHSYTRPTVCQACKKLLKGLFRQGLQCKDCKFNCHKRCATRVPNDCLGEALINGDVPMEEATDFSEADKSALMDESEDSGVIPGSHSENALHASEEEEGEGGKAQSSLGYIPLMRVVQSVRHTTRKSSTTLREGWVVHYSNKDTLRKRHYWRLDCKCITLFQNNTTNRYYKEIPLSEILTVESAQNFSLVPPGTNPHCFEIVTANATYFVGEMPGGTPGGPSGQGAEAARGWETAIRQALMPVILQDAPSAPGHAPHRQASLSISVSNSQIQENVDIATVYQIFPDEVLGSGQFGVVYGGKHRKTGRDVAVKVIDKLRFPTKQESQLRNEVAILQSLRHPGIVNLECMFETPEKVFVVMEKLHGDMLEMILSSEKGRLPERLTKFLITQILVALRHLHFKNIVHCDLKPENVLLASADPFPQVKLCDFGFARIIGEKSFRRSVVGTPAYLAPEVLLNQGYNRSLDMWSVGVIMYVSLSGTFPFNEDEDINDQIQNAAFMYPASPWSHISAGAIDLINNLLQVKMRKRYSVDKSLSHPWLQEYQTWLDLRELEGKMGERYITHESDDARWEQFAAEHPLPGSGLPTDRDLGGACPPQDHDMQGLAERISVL

[4] = biological target: T2, Serine/threonine-protein kinase D1 (Homo sapiens) (UniProt Q15139); assay: Selectivity interaction (Kinase panel (Invitrogen)) EUB0000639a PRKD1; conditions: at 200 nM
T2 sequence (whole entry): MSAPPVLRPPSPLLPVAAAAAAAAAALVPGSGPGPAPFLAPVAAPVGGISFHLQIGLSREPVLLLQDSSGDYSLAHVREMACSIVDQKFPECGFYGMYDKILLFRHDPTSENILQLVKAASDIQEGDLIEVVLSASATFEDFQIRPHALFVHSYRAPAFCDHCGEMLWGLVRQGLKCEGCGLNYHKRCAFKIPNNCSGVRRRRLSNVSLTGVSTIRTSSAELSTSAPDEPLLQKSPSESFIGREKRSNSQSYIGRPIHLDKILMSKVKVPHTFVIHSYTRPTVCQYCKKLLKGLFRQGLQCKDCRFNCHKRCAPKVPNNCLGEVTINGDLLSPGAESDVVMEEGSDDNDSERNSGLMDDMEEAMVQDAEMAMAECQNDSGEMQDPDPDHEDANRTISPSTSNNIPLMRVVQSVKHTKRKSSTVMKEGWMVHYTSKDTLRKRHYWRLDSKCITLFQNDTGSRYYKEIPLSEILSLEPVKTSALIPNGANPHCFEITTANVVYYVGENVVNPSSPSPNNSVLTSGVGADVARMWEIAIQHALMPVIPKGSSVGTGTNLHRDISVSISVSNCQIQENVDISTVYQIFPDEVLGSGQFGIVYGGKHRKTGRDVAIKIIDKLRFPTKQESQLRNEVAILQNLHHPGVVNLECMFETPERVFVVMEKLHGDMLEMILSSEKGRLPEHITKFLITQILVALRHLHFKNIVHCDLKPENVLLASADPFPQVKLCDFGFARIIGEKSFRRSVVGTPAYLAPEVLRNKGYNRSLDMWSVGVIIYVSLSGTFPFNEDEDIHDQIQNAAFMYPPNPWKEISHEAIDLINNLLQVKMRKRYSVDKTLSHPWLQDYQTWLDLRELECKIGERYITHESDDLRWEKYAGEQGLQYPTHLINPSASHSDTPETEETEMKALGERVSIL

SRSF protein kinase 1 = SRSF protein kinase 1 (Homo sapiens, UniProt Q96SB4); assay: Selectivity interaction (ActivX KiNativ screen (kinase selectivity in THP-1 cell lysates)) EUB0000639a SRPK1; format: subcellular; conditions: lysate, at 1 µM
Chain of SRSF protein kinase 1 (Q96SB4 whole entry): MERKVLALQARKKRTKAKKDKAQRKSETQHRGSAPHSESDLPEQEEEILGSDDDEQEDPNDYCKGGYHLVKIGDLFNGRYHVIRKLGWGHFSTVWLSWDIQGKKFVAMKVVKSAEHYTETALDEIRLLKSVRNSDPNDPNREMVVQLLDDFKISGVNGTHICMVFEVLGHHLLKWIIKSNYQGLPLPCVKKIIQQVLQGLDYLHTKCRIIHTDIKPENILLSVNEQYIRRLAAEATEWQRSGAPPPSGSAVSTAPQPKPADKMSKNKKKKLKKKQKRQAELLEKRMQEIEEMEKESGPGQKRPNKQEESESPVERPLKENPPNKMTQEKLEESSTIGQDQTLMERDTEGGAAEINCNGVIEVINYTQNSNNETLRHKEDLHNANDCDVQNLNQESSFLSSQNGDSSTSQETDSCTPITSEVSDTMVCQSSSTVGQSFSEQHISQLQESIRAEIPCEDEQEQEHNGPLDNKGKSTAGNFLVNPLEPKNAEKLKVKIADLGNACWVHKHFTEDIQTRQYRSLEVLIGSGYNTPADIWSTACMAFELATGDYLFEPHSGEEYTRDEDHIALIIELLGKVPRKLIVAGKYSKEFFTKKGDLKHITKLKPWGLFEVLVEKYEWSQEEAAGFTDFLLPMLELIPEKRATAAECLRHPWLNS

[5] = biological target: Mitogen-activated protein kinase kinase kinase 1 (Homo sapiens, UniProt Q13233); assay: Selectivity interaction (KinomeScan (DiscoverX)) EUB0000092b MAP3K1; conditions: at 10 µM
Chain of Mitogen-activated protein kinase kinase kinase 1 (Q13233 whole entry): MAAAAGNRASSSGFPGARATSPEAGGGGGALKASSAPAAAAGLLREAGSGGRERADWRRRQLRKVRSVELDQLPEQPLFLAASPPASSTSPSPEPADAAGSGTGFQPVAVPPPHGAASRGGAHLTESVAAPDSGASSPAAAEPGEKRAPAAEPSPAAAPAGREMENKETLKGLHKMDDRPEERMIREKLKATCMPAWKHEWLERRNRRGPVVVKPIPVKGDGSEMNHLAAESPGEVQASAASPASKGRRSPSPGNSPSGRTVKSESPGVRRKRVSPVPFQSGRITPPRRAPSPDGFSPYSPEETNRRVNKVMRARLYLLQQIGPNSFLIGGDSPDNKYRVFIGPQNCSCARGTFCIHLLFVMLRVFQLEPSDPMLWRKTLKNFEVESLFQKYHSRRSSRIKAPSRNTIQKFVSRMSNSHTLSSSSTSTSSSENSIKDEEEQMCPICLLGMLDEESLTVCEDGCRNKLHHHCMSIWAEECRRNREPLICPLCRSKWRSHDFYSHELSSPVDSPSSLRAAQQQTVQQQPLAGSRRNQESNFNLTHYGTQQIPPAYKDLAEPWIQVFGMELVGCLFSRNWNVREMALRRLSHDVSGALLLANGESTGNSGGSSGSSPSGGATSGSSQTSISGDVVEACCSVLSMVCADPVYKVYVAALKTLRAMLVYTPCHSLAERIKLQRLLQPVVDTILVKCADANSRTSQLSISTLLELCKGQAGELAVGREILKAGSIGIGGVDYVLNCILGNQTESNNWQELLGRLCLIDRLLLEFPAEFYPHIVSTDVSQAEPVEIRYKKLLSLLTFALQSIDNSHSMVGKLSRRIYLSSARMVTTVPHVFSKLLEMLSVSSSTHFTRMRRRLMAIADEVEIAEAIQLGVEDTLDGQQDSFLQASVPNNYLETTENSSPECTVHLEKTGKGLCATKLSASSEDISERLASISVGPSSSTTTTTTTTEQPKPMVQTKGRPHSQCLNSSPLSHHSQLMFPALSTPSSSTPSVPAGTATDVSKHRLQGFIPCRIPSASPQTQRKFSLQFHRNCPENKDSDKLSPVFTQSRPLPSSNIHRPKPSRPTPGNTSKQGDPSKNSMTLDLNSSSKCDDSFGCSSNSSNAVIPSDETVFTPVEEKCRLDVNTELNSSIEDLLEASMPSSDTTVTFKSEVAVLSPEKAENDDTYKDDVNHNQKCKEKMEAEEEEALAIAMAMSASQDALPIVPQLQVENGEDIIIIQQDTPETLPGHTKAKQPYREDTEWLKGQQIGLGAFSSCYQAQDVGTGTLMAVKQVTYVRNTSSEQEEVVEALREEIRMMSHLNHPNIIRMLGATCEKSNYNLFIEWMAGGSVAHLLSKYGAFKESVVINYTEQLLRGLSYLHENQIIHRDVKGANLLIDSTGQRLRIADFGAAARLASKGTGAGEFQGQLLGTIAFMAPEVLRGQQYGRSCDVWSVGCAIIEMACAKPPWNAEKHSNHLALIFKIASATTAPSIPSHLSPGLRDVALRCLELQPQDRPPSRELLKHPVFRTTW

[6] = biological target: G protein-coupled receptor kinase 4 (Homo sapiens) (UniProt P32298); assay: Selectivity interaction (Kinase panel (Z-LYTE Assay)) EUB0001632a GRK4; conditions: at 10 µM
Chain of G protein-coupled receptor kinase 4 (Homo sapiens) (P32298 whole entry, looked up): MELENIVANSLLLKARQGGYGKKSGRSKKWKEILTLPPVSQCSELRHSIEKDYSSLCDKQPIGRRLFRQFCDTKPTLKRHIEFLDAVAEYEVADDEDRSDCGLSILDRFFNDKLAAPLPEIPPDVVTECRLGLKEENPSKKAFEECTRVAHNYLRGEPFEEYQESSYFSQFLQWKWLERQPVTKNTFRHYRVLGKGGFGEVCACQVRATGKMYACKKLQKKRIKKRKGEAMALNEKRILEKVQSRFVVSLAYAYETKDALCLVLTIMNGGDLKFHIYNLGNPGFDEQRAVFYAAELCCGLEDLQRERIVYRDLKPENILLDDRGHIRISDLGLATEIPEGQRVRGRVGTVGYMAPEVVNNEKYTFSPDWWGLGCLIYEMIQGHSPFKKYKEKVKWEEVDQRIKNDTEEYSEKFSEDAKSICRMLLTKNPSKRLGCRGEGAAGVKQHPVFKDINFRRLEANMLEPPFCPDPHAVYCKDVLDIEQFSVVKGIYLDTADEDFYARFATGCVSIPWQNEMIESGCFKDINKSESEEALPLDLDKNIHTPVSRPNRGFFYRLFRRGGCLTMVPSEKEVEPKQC

[7] = biological target: Ribosomal protein S6 kinase alpha-4 (Homo sapiens) (UniProt O75676); assay: Selectivity interaction (Kinase panel (Z-LYTE Assay)) EUB0001632a RPS6KA4; conditions: at 10 µM
Chain of Ribosomal protein S6 kinase alpha-4 (Homo sapiens) (O75676 whole entry, looked up): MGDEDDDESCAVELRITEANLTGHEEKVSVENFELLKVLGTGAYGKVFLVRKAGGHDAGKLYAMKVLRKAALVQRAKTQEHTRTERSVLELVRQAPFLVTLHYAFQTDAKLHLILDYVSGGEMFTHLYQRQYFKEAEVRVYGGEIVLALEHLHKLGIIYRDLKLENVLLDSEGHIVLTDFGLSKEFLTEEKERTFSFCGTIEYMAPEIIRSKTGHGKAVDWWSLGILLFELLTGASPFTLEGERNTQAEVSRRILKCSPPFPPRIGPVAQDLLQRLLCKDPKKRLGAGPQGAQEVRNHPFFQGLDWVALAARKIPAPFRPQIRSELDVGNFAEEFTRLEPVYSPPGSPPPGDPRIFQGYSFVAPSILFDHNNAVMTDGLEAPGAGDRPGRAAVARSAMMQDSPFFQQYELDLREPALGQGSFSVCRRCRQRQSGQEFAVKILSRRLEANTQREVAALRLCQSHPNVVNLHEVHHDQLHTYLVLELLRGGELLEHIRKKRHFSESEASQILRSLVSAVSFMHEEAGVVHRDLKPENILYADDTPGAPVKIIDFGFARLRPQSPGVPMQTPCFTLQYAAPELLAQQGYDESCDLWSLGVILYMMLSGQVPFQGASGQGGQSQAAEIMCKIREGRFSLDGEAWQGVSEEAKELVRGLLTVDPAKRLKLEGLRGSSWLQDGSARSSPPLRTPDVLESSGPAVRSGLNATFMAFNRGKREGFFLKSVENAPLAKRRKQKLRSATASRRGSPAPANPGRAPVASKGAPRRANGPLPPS

Chain of BMP-2-inducible protein kinase (Homo sapiens) (Q9NSY1 whole entry, looked up): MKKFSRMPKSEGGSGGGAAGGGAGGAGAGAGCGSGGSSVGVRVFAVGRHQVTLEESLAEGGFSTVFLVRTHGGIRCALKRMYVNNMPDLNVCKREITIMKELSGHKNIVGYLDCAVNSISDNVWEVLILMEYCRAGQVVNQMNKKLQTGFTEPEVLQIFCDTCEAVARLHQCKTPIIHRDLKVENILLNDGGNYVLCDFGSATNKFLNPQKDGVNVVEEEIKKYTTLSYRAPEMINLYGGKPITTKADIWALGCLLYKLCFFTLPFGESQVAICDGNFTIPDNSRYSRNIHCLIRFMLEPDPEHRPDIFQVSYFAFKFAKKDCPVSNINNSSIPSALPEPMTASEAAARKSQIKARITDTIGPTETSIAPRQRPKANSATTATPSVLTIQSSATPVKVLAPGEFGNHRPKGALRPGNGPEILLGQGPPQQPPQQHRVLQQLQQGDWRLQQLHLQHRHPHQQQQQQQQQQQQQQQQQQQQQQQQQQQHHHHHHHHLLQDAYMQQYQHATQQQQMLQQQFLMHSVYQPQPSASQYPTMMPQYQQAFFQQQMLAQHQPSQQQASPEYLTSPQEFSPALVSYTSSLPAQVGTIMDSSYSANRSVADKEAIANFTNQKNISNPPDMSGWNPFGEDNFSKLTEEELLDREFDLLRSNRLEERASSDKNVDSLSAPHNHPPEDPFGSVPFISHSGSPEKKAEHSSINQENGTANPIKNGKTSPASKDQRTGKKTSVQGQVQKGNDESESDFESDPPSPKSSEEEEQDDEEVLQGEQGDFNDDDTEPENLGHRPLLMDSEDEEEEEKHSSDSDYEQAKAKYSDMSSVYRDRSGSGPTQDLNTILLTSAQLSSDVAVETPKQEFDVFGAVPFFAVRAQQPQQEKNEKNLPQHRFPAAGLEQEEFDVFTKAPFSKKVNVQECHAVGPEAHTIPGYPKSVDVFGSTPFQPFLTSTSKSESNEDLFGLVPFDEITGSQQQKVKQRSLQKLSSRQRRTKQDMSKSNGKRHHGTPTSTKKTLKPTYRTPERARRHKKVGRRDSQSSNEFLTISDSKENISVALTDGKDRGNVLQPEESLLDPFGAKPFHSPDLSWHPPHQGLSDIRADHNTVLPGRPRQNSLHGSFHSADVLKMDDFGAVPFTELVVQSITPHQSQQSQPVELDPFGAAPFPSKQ

- % of control [1]: 100%
SMILES: CCN(CC)CCCCNc1ncc2cc(-c3cc(OC)cc(OC)c3)c(NC(=O)NC(C)(C)C)nc2n1

- % of inhibition [4]: 5.76%
- % of inhibition (SRSF protein kinase 1): 0.5%
SMILES: CC[C@@H]1[C@H](F)C(=O)N[C@@H]1COc1nccc2cc(C(N)=O)c(OC)cc12 [ZIMLOVISERTIB]

- % of control [6]: 0.672%
- % of control [7]: 0.55%
SMILES: Cn1cc(-n2cnc3c(NCc4nc5cc(Cl)c(Cl)cc5[nH]4)nc(N4CCOCC4)nc32)cn1

Second part, the molecule before the results:

SMILES: CN(C)CCOc1ccc(-c2nc(-c3ccncc3)c(-c3ccc4c(c3)CC/C4=N\O)[nH]2)cc1
- % of control [2]: 100%

SMILES: N#Cc1cccc(-c2c[nH]c3ncnc(N4CCOCC4)c23)c1
- % of control [3]: 100%

SMILES: CCC(=O)N1CCN(c2ccc(-n3c(=O)ccc4cnc5ccc(-c6cnc7ccccc7c6)cc5c43)cc2C(F)(F)F)CC1
- % of control [5]: 92%
